Results from article PMC6230509 (Neuropharmacology, 2018).
Where two headings read alike, the source gives them in different places.

Tests used:
5-HT1A = target: T1, 5-HT1A (Homo sapiens, UniProt P08908); experiment: NIMH PDSP radioligand competition binding, 5-HT1A
T1 sequence (P08908 1-422): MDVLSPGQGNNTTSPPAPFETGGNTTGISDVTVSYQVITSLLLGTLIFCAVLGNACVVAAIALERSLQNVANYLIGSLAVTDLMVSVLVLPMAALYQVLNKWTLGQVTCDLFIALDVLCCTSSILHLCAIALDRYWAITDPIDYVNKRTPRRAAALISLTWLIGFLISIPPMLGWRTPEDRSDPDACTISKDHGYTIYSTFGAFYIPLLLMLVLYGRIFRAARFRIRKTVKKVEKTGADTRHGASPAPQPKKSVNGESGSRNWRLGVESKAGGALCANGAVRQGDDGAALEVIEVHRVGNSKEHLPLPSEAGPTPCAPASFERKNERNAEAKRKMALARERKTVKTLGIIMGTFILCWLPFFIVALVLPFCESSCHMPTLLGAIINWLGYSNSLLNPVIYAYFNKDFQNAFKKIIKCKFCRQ

5-HT1B = 5-HT1B (Homo sapiens, UniProt P28222); experiment: NIMH PDSP radioligand competition binding, 5-HT1B
5-HT1D = 5-HT1D (Homo sapiens, UniProt P28221); experiment: NIMH PDSP radioligand competition binding, 5-HT1D
5-HT1E = 5-HT1E (Homo sapiens, UniProt P28566); experiment: NIMH PDSP radioligand competition binding, 5-HT1E
5-HT2A = 5-HT2A (Homo sapiens, UniProt P28223); experiment: NIMH PDSP radioligand competition binding, 5-HT2A
5-HT2B = 5-HT2B (Homo sapiens, UniProt P41595); experiment: NIMH PDSP radioligand competition binding, 5-HT2B
5-HT6 = 5-HT6 (Homo sapiens, UniProt P50406); experiment: NIMH PDSP radioligand competition binding, 5-HT6
5-HT7 = 5-HT7 (Homo sapiens, UniProt P34969); experiment: NIMH PDSP radioligand competition binding, 5-HT7
[1] = target: serotonin transporter (SERT) (Homo sapiens, UniProt P31645); experiment: NIMH PDSP radioligand competition binding, SERT
α1B = target: T2, α1B (Homo sapiens, UniProt P35368); experiment: NIMH PDSP radioligand competition binding, α1B
T2 sequence (P35368 1-520): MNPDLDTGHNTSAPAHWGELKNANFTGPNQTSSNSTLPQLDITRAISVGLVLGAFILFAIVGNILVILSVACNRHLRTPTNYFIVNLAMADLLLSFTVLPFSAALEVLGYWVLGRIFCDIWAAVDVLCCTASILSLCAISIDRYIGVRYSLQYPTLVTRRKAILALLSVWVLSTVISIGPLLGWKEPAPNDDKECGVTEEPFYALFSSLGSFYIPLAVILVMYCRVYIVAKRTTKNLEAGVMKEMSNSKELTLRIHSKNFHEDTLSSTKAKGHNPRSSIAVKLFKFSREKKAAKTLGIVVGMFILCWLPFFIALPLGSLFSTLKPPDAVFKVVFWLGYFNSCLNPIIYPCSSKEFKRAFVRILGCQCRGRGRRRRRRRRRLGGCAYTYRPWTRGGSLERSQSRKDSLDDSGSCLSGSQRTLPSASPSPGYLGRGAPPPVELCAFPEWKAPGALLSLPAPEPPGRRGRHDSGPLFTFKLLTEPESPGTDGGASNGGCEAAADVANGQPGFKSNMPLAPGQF

α2B = target: T3, α2B (Homo sapiens, UniProt P18089); experiment: NIMH PDSP radioligand competition binding, α2B
T3 sequence (P18089 1-450): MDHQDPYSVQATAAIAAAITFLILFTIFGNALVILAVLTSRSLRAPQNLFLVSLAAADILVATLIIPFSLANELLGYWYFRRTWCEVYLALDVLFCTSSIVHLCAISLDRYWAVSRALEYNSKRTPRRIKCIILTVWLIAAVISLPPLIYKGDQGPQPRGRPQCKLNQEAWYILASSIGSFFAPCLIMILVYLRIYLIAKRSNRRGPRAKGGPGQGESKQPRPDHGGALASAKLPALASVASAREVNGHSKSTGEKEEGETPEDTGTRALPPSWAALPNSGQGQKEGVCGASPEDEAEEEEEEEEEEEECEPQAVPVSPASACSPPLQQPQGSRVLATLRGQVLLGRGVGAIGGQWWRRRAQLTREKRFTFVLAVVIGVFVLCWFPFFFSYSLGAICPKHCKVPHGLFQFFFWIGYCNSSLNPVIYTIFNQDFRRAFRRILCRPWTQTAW

α2C = target: T4, α2C (Homo sapiens, UniProt P18825); experiment: NIMH PDSP radioligand competition binding, α2C
T4 sequence (P18825 1-462): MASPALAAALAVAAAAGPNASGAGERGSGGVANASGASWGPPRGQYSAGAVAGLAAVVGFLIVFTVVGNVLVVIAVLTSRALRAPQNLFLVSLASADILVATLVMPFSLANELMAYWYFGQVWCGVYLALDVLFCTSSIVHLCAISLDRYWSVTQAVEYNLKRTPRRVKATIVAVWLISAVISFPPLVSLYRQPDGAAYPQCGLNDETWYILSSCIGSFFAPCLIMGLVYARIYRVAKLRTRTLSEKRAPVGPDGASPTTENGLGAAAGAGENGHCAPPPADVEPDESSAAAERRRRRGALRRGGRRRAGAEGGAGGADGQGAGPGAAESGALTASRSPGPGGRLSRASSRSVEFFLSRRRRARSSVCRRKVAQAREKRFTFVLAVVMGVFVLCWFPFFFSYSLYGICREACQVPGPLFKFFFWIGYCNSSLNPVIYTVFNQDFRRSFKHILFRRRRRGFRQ

D2 = D2 (Homo sapiens, UniProt P14416); experiment: NIMH PDSP radioligand competition binding, D2
[2] = target: dopamine transporter (DAT) (Homo sapiens, UniProt Q01959); experiment: NIMH PDSP radioligand competition binding, DAT
H2 = H2 (Homo sapiens, UniProt P25021); experiment: NIMH PDSP radioligand competition binding, H2
H3 = H3 (Cavia porcellus, UniProt Q9JI35); experiment: NIMH PDSP radioligand competition binding, H3; set-up: species or system Guinea pig
σ1 = σ1 (Rattus norvegicus, UniProt Q9R0C9); experiment: NIMH PDSP radioligand competition binding, σ1
[3] = test system: head twitch response (5-HT2A receptor-mediated); experiment: Head twitch response; type: in vivo, C57BL/6J mice; settings: for activity in the HTR assay (in words): C57BL/6J mice, IP, within the dose range tested; for ED50: Mus musculus, ip
[4] = Binding Affinity (Ki, nM), [3H]tiotidine, cloned human receptor
[5] = 0.875 mg/kg IP, duration 30 min
[6] = read-out: ED50 (95% CI) (mg/kg)
[7] = read-out: ED50 (95% CI) (μmol/kg)

Chain of 5-HT1D (P28221 whole entry): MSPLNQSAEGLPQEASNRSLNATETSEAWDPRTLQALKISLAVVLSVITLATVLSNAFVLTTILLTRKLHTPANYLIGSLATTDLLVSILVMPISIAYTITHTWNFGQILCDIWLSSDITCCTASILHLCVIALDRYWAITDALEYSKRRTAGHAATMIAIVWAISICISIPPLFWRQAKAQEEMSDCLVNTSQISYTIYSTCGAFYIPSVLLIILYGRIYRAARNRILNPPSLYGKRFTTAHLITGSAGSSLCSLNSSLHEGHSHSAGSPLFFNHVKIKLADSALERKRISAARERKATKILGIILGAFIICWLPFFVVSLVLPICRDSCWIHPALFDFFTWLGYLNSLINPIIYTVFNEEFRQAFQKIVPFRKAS
Chain of 5-HT2A (P28223 whole entry, looked up): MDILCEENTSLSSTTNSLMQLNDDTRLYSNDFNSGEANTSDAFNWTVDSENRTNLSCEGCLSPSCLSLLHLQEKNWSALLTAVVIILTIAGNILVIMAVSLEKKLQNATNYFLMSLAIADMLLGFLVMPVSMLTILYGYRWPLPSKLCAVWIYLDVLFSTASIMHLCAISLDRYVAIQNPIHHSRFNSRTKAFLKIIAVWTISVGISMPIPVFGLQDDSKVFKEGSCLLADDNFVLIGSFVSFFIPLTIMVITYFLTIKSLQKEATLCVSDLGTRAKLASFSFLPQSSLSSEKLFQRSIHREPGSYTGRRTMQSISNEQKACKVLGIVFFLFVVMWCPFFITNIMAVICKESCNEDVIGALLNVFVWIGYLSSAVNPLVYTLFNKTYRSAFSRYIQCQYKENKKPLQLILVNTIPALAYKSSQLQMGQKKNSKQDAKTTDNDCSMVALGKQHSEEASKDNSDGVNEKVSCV
Chain of H2 (P25021 whole entry): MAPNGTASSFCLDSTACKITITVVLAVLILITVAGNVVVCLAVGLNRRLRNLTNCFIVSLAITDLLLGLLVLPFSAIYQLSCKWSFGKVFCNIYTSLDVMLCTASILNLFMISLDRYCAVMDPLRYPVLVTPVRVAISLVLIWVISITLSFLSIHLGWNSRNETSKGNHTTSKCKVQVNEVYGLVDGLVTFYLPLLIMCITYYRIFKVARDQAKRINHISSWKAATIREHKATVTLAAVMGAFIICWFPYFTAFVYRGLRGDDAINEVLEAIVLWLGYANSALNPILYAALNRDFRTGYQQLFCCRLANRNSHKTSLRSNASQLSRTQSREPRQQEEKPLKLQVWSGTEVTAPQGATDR
Chain of 5-HT6 (P50406 whole entry): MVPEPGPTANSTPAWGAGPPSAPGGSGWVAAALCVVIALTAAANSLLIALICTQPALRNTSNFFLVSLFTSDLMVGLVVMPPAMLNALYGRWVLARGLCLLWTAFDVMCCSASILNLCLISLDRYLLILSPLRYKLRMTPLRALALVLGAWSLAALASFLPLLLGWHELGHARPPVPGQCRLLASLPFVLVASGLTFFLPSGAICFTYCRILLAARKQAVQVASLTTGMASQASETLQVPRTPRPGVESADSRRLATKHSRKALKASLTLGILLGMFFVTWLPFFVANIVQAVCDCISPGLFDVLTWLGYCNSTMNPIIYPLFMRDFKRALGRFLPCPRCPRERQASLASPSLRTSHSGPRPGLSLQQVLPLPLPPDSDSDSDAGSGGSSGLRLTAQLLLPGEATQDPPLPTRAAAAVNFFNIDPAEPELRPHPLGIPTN
Chain of 5-HT7 (P34969 whole entry): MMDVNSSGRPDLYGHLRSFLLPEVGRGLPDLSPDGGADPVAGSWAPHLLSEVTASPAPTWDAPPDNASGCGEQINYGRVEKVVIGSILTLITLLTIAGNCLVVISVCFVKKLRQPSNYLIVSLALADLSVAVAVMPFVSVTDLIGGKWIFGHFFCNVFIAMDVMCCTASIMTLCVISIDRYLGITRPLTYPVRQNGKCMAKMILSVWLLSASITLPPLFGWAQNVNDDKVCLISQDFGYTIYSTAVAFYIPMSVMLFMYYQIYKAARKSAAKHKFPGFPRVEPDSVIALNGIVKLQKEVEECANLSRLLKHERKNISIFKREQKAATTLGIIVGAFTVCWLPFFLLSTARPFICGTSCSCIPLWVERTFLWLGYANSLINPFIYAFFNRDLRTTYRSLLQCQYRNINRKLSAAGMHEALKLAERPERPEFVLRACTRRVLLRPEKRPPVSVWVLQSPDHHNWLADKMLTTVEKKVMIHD
Chain of dopamine transporter (DAT) (Q01959 whole entry): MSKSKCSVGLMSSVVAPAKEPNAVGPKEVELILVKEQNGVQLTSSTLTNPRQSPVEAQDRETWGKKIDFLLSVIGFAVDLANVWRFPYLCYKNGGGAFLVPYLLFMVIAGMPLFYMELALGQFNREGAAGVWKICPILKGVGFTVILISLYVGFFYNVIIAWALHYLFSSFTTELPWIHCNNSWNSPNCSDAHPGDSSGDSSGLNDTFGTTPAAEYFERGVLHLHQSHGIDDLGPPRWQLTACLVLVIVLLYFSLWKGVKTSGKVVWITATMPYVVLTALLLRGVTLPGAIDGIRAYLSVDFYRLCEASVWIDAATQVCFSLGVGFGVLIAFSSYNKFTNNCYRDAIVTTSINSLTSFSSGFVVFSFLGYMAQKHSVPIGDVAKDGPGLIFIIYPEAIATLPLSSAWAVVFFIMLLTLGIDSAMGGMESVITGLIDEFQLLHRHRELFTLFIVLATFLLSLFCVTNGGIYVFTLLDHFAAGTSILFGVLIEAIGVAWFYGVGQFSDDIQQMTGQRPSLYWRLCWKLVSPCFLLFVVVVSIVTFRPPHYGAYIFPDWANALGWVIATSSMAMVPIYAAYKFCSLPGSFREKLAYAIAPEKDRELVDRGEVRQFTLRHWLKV
Chain of H3 (Q9JI35 whole entry): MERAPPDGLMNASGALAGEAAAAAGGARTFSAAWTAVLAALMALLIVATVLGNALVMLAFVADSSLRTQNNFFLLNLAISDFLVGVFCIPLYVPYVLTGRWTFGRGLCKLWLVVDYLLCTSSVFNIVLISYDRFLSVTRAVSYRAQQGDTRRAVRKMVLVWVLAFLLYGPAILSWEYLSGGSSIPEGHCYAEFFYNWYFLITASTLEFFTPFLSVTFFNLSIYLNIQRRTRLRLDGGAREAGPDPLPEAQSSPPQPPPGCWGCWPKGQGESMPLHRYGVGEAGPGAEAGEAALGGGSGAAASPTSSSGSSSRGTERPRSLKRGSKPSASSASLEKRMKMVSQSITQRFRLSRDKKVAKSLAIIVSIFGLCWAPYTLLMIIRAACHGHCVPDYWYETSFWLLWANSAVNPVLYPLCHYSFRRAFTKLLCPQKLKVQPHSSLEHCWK
Chain of 5-HT2B (P41595 whole entry): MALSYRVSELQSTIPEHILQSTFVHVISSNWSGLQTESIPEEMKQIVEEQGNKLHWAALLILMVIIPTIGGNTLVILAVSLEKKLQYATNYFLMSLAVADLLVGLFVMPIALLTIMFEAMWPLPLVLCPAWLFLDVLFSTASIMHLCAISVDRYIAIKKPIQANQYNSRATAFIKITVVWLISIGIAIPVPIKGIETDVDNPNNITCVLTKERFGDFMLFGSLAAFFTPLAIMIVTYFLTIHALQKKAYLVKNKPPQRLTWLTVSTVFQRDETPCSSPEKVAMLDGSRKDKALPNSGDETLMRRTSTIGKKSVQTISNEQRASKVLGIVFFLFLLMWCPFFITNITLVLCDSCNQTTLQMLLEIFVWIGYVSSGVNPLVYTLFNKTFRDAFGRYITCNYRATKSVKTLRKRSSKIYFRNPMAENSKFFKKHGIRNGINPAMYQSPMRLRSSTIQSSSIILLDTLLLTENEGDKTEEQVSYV
Chain of 5-HT1E (P28566 whole entry): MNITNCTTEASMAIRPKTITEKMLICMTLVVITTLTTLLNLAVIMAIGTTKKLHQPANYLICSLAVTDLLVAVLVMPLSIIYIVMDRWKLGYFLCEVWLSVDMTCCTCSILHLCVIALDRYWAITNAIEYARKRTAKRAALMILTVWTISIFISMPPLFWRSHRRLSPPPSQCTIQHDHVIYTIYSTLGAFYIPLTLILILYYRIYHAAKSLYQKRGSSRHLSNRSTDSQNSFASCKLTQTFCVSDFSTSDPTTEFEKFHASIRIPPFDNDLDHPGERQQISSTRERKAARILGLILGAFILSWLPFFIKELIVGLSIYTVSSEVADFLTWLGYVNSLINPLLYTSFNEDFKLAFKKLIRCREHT
Chain of σ1 (Q9R0C9 whole entry): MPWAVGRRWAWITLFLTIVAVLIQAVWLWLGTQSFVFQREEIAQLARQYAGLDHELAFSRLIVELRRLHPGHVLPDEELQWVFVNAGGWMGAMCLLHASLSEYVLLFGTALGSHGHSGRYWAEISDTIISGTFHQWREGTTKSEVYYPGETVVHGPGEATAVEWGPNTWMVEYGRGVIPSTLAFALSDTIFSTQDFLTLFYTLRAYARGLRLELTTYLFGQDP
Chain of D2 (P14416 whole entry): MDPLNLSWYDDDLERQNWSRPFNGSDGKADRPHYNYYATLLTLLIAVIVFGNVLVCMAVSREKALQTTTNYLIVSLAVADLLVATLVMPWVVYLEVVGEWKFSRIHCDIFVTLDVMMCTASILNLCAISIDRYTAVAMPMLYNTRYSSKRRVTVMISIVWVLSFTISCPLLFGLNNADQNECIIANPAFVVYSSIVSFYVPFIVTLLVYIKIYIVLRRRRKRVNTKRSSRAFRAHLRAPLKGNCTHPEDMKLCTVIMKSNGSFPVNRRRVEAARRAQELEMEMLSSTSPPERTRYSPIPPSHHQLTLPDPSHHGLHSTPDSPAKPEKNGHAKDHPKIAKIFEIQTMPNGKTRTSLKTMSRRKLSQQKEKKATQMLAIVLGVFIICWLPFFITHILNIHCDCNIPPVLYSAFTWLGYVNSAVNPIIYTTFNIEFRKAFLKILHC

Row | SMILES | Ki (5-HT1A) [nM] | Ki (5-HT1B) [nM] | Ki (5-HT1D) [nM] | Ki (5-HT1E) [nM] | Ki (5-HT2A) [nM] | Ki (5-HT2B) [nM] | Ki (5-HT6) [nM] | Ki (5-HT7) [nM] | Ki [1] [nM] | Ki (α1B) [nM] | Ki (α2B) [nM] | Ki (α2C) [nM] | Ki (D2) [nM] | Ki [2] [nM] | Ki (H2; [4]) [nM] | Ki (H3) [nM] | Ki (σ1) [nM] | HTR Counts (mean ± SEM) [3, 5] | HTR Counts (mean ± SEM) ([3]; 1.75 mg/kg IP, duration 30 min) | HTR Counts (mean ± SEM) ([3]; 3.5 mg/kg IP, duration 30 min) | further results
1 | C=CCN(CC=C)CCc1c(C)[nH]c2ccc(F)cc12 [5-F-2-Me-DALT, 5-fluoro-2-methyl-N,N-diallyltryptamine] | 318 | 2010 | 1590 | 1270 | 655 | 17 | 168 | 493 | 983 | > 10000 | 108 | 184 | 4420 | 2210 | > 10000 | 1400 | 531 | 6.2 ± 1.0 | 6.8 ± 0.9 | 5.8 ± 2.5 | SERT affinity, fold reduction by 2-methylation [1]: ~30 fold; HTR Counts (mean ± SEM) ([3]; 7 mg/kg IP, duration 30 min): 6.4 ± 1.6; HTR Counts (mean ± SEM) ([3]; 14 mg/kg IP, duration 30 min): 7.2 ± 0.8; activity in the HTR assay (in words) ([3]; listed as 5-fluoro-2-methyl-DALT): did not induce the HTR
2 | C=CCN(CC=C)CCc1c[nH]c2c(CC)cccc12 [7-Et-DALT, 7-ethyl-N,N-diallyltryptamine] | 1010 | > 10000 | 2690 | > 10000 | 1520 | 65 | > 10000 | > 10000 | 795 | > 10000 | 489 | 682 | > 10000 | 1730 | > 10000 | > 10000 | 22 |  |  |  | σ1 affinity, fold higher than the parent compound (σ1; relative to DALT): ~5 fold; HTR Counts (mean ± SEM) ([3]; 15 mg/kg IP, duration 30 min): 9.8 ± 1.8; activity in the HTR assay (in words) [3]: did not induce the HTR
3 | C=CCN(CC=C)CCc1c(C)[nH]c2ccc(OC)cc12 [5-MeO-2-Me-DALT, 5-methoxy-2-methyl-N,N-diallyltryptamine] | 267 | 2270 | 900 | 1590 | 1150 | 241 | 206 | > 10000 | > 10000 | > 10000 | 335 | 888 | > 10000 | 2410 | > 10000 | 1130 | 427 | 4.4 ± 0.2 | 7.4 ± 2.2 | 4.2 ± 1.0 | displacement at 10,000 nM ([1]; SERT, [3H]citalopram, at 10,000 nM): < 50%; HTR Counts (mean ± SEM) ([3]; 7 mg/kg IP, duration 30 min): 4.2 ± 0.9; HTR Counts (mean ± SEM) ([3]; 14 mg/kg IP, duration 30 min): 5.0 ± 1.4; activity in the HTR assay (in words) ([3]; listed as 5-methoxy-2-methyl-DALT): did not induce the HTR
4 | C=CCN(CC=C)CCc1c[nH]c2cccc(O)c12 [4-HO-DALT, 4-hydroxy-N,N-diallyltryptamine] | 319 | 2490 | 693 | 238 | 652 | 2590 | 213 | 600 | 5210 | > 10000 | > 10000 | > 10000 | > 10000 | > 10000 | > 10000 | > 10000 | 2760 |  |  |  | HTR Counts (mean ± SEM) ([3]; 0.875 mg/kg IP, duration 5 min): 4.0 ± 3.3; HTR Counts (mean ± SEM) ([3]; 1.75 mg/kg IP, duration 5 min): 9.2 ± 3.7; HTR Counts (mean ± SEM) ([3]; 3.5 mg/kg IP, duration 5 min): 28.6 ± 4.1; HTR Counts (mean ± SEM) ([3]; 7 mg/kg IP, duration 5 min): 31.6 ± 4.9; HTR Counts (mean ± SEM) ([3]; 14 mg/kg IP, duration 5 min): 24.6 ± 4.7; activity in the HTR assay (in words) [3]: active; ED50 [3, 6]: 2.6 mg/kg; ED50 [3, 7]: 8.3 µmol/kg
5 | C=CCN(CC=C)CCc1c[nH]c2cccc(OC(C)=O)c12 [4-AcO-DALT, 4-acetoxy-N,N-diallyltryptamine] | 383 | > 10000 | 801 | 467 | 565 | 63 | 1790 | 724 | 1090 | > 10000 | 170 | 748 | > 10000 | > 10000 | > 10000 | > 10000 | 299 | 10.4 ± 1.4 | 42.0 ± 9.5 | 39.0 ± 14.1 | HTR Counts (mean ± SEM) ([3]; 7 mg/kg IP, duration 30 min): 65.0 ± 8.4; HTR Counts (mean ± SEM) ([3]; 14 mg/kg IP, duration 30 min): 47.8 ± 10.0; activity in the HTR assay (in words) [3]: active; ED50 [3, 6]: 1.99 mg/kg; ED50 [3, 7]: 4.8 µmol/kg
6 | C=CCN(CC=C)CCc1c(-c2ccccc2)[nH]c2ccccc12 [2-Ph-DALT, 2-phenyl-N,N-diallyltryptamine] | 402 | 273 | 204 | > 10000 | 13 | 192 | 68 | > 10000 | > 10000 | 904 | 78 | 159 | 388 | 746 | 367 | > 10000 | > 10000 | 2.8 ± 0.5 | 3.6 ± 1.3 | 1.4 ± 0.5 | 5-HT2A binding affinity, fold higher than the affinity of DALT (5-HT2A): 54 fold; 5-HT2A binding affinity, fold higher than the affinity of any other DALT derivative (5-HT2A; relative to any other DALT derivative): at least 10 fold; Ki (H2; Ki value, bound stated): < 10000 nM; HTR Counts (mean ± SEM) ([3]; 7 mg/kg IP, duration 30 min): 2.0 ± 0.5; HTR Counts (mean ± SEM) ([3]; 14 mg/kg IP, duration 30 min): 1.2 ± 0.5; activity in the HTR assay (in words) [3]: abolished activity; activity in the HTR assay (in words) ([3]; listed as 2-Phenyl-DALT): did not induce the HTR
